Results on 8 compounds are retold here after paper PMC9047694, “Phenolic Compounds From the Stems and Leaves of Berchemia lineata (L.) DC” (Frontiers in Chemistry, 2022).

Some results are limits rather than exact numbers.

This assay has as its target α-glucosidase (Saccharomyces cerevisiae, UniProt P53341). Put plainly: α-Glucosidase inhibitory assay. The note with it: for IC50: 4-nitrophenyl-α-D-glucopyranoside substrate, 37°C, 30 min, absorbance 405 nm, read-out: IC50 (μM), α-glucosidase inhibitory activities; for inhibitory activities against α-glucosidase (in words): conclusion statement. It is filed as biochemical. As to the method:
IC50 values were calculated from the graph of inhibition percentage against the logarithm of the concentrations of compounds.

Sequence of α-glucosidase (P53341 whole entry): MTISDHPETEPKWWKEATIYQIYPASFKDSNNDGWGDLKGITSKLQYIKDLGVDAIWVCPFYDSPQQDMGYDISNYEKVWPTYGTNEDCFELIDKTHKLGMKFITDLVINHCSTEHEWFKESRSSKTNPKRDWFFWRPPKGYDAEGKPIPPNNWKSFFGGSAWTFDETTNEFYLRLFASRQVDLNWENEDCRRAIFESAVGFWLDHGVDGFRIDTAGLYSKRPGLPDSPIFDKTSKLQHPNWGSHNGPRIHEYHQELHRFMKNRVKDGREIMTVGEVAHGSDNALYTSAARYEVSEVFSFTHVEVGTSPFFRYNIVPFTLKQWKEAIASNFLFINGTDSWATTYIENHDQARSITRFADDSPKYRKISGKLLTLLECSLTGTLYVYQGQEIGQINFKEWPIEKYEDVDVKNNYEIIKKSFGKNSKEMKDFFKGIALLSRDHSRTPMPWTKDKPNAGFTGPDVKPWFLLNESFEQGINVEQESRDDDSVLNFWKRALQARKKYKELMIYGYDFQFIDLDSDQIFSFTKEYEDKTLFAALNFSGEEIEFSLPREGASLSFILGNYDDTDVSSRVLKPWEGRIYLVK

In the case of `COc1cc(O[C@@H]2O[C@H](CO)[C@@H](O)[C@H](O)[C@H]2O)c2c(O)c3c(=O)cc(C)oc3cc2c1` [Compound 11, rubrofusarin-6-O-β-D-glucopyranoside], the IC50 turned out to be 28 µM and the “inhibitory activities against α-glucosidase (in words)” value (“inhibitory activities” below) is “moderate inhibitory activities”. For the compound `COc1cc(O[C@@H]2O[C@H](CO[C@@H]3O[C@@H](C)[C@H](O)[C@@H](O)[C@H]3O)[C@@H](O)[C@H](O)[C@H]2O)c2c(O)c3c(=O)cc(C)oc3cc2c1` [Compound 12, rubrofusarin-6-O-α-L-rhamnosyl-(1→6)-O-β-D-glucopyranside], the IC50 is above 50 µM. Take `O=c1c(O)c(-c2ccc(O)c(O)c2)oc2cc(O)cc(O)c12` [Compound 14, quercetin]: the “inhibitory activities” value is “moderate inhibitory activities”. The same measure, in the same setting: then `O=c1c(O)c(-c2ccc(O)cc2)oc2cc(O)cc(O)c12` [Compound 15, kaempferol], with “moderate inhibitory activities”. Turning to `O=C1c2c(O)cc(O)cc2O[C@H](c2ccc(O)cc2)[C@H]1O` [Compound 17, dihydrokaempferol], the “inhibitory activities” value is given as “moderate inhibitory activities”. Regarding `COc1c(O)c(O)cc2c1C(=O)c1c(O)cc(C)cc1C2=O` [Compound 18, 2-hydroxyemodin 1-methyl ether], the IC50 was above 50 µM. On the same count and under the same terms, for “demethylflavasperone-10-O-β-D-glucopyranoside [Compound 10]” the value was above 50 µM. Turning to vittarin-B [Compound 9], the IC50 came to 22.5 µM and the “inhibitory activities” value is listed as “moderate inhibitory activities”.

A word on the IC50: it is the concentration at which inhibition is half-maximal.
